Source: ChEMBL document CHEMBL3774387, “Synthesis and anticancer evaluation of spermatinamine analogues” (Bioorg Med Chem Lett, 2016)
pIC50: −log10 of the molar value.

Assays:
HeLa [1] = assay: Cytotoxicity against human HeLa cells assessed as viable cells after 24 hrs by MTT assay; assay type: functional, cell-based
[2] = Cytotoxicity against human DU145 cells assessed as viable cells after 48 hrs by MTT assay; assay type: functional, cell-based; conditions: DU-145, 48 h
MCF7 [3] = assay: Cytotoxicity against human MCF7 cells assessed as viable cells after 48 hrs by MTT assay; assay type: functional, cell-based; conditions: MCF7, 48 h
MCF7 [4] = assay: Cytotoxicity against human MCF7 cells assessed as viable cells after 24 hrs by MTT assay; assay type: functional, cell-based; conditions: MCF7, 24 h
[5] = Cytotoxicity against human DU145 cells assessed as viable cells after 24 hrs by MTT assay; assay type: functional, cell-based; conditions: DU-145, 24 h
HeLa [6] = assay: Cytotoxicity against human HeLa cells assessed as viable cells after 48 hrs by MTT assay; assay type: functional, cell-based
[7] = Cytotoxicity against human DU145 cells assessed as growth inhibition at 50 uM after 24 hrs by MTT assay (reference value: 1.2 to 7.8%); assay type: functional; conditions: DU-145, 24 h, read-out: GI
MCF7 [8] = assay: Cytotoxicity against human MCF7 cells assessed as growth inhibition at 10 uM after 24 hrs by MTT assay (reference value: 2.7 to 9.3%); assay type: functional; conditions: MCF7, 24 h, read-out: GI
MCF7 [9] = assay: Cytotoxicity against human MCF7 cells assessed as growth inhibition at 2.5 uM after 24 hrs by MTT assay (reference value: 2.7 to 9.3%); assay type: functional; conditions: MCF7, 24 h, read-out: GI
HeLa [10] = assay: Cytotoxicity against human HeLa cells assessed as growth inhibition at 2.5 uM after 24 hrs by MTT assay (reference value: 0 to 4.4%); assay type: functional; conditions: read-out: GI
[11] = Cytotoxicity against human DU145 cells assessed as growth inhibition at 1.25 uM after 24 hrs by MTT assay (reference value: 1.2 to 7.8%); assay type: functional; conditions: DU-145, 24 h, read-out: GI
MCF7 [12] = assay: Cytotoxicity against human MCF7 cells assessed as growth inhibition at 100 uM after 24 hrs by MTT assay (reference value: 2.7 to 9.3%); assay type: functional; conditions: MCF7, 24 h, read-out: GI
[13] = Cytotoxicity against human DU145 cells assessed as growth inhibition at 10 uM after 24 hrs by MTT assay (reference value: 1.2 to 7.8%); assay type: functional; conditions: DU-145, 24 h, read-out: GI
[14] = Cytotoxicity against human DU145 cells assessed as growth inhibition at 100 uM after 24 hrs by MTT assay (reference value: 1.2 to 7.8%); assay type: functional; conditions: DU-145, 24 h, read-out: GI
MCF7 [15] = assay: Cytotoxicity against human MCF7 cells assessed as growth inhibition at 1.25 uM after 24 hrs by MTT assay (reference value: 2.7 to 9.3%); assay type: functional; conditions: MCF7, 24 h, read-out: GI
[16] = Cytotoxicity against human DU145 cells assessed as growth inhibition at 25 uM after 24 hrs by MTT assay (reference value: 1.2 to 7.8%); assay type: functional; conditions: DU-145, 24 h, read-out: GI
HeLa [17] = assay: Cytotoxicity against human HeLa cells assessed as growth inhibition at 50 uM after 24 hrs by MTT assay (reference value: 0 to 4.4%); assay type: functional; conditions: read-out: GI
HeLa [18] = assay: Cytotoxicity against human HeLa cells assessed as growth inhibition at 100 uM after 24 hrs by MTT assay (reference value: 0 to 4.4%); assay type: functional; conditions: read-out: GI
MCF7 [19] = assay: Cytotoxicity against human MCF7 cells assessed as growth inhibition at 50 uM after 24 hrs by MTT assay (reference value: 2.7 to 9.3%); assay type: functional; conditions: MCF7, 24 h, read-out: GI
HeLa [20] = assay: Cytotoxicity against human HeLa cells assessed as growth inhibition at 10 uM after 24 hrs by MTT assay (reference value: 0 to 4.4%); assay type: functional; conditions: read-out: GI
[21] = Cytotoxicity against human DU145 cells assessed as growth inhibition at 5 uM after 24 hrs by MTT assay (reference value: 1.2 to 7.8%); assay type: functional; conditions: DU-145, 24 h, read-out: GI
[22] = Cytotoxicity against human DU145 cells assessed as growth inhibition at 2.5 uM after 24 hrs by MTT assay (reference value: 1.2 to 7.8%); assay type: functional; conditions: DU-145, 24 h, read-out: GI
HeLa [23] = assay: Cytotoxicity against human HeLa cells assessed as growth inhibition at 1.25 uM after 24 hrs by MTT assay (reference value: 0 to 4.4%); assay type: functional; conditions: read-out: GI
MCF7 [24] = assay: Cytotoxicity against human MCF7 cells assessed as growth inhibition at 25 uM after 24 hrs by MTT assay (reference value: 2.7 to 9.3%); assay type: functional; conditions: MCF7, 24 h, read-out: GI
MCF7 [25] = assay: Cytotoxicity against human MCF7 cells assessed as growth inhibition at 5 uM after 24 hrs by MTT assay (reference value: 2.7 to 9.3%); assay type: functional; conditions: MCF7, 24 h, read-out: GI
HeLa [26] = assay: Cytotoxicity against human HeLa cells assessed as growth inhibition at 5 uM after 24 hrs by MTT assay (reference value: 0 to 4.4%); assay type: functional; conditions: read-out: GI
HeLa [27] = assay: Cytotoxicity against human HeLa cells assessed as growth inhibition at 25 uM after 24 hrs by MTT assay (reference value: 0 to 4.4%); assay type: functional; conditions: read-out: GI
MCF7 [28] = assay: Cytotoxicity against human MCF7 cells assessed as viable cells after 24 hrs by Solid plate-based spot culture growth inhibition assay; assay type: functional, cell-based; conditions: MCF7, 24 h
[29] = Cytotoxicity against human DU145 cells assessed as viable cells after 24 hrs by Solid plate-based spot culture growth inhibition assay; assay type: functional, cell-based; conditions: DU-145, 24 h
HeLa [30] = assay: Cytotoxicity against human HeLa cells assessed as growth inhibition at 5 uM by MTT assay; assay type: functional, cell-based; conditions: TDE = time-dependent effect
HeLa [31] = assay: Cytotoxicity against human HeLa cells assessed as growth inhibition at 5 uM after 48 hrs by MTT assay; assay type: functional; conditions: read-out: GI

SMILES | pIC50 (HeLa [1]) | pIC50 [2] | pIC50 (MCF7 [3]) | pIC50 (MCF7 [4]) | pIC50 [5] | pIC50 (HeLa [6]) | inhibition of growth at 50 µM [7] [%] | inhibition of growth at 10 µM (MCF7 [8]) [%] | inhibition of growth at 2.5 µM (MCF7 [9]) [%] | inhibition of growth at 2.5 µM (HeLa [10]) [%] | inhibition of growth at 1.25 µM [11] [%] | inhibition of growth at 100 µM (MCF7 [12]) [%] | inhibition of growth at 10 µM [13] [%] | inhibition of growth at 100 µM [14] [%] | inhibition of growth at 1.25 µM (MCF7 [15]) [%] | inhibition of growth at 25 µM [16] [%] | inhibition of growth at 50 µM (HeLa [17]) [%] | inhibition of growth at 100 µM (HeLa [18]) [%] | inhibition of growth at 50 µM (MCF7 [19]) [%] | inhibition of growth at 10 µM (HeLa [20]) [%] | also measured
CO/N=C(\Cc1cc(Br)c(OC)c(Br)c1)C(=O)NCCCCCNC(=O)/C(Cc1cc(Br)c(OC)c(Br)c1)=N/OC | < 4.00 | < 4.00 | < 4.00 | < 4.00 | < 4.00 | < 4.00 | – | – | – | – | – | – | – | – | – | – | – | – | – | – | –
COc1c(Br)cc(C/C(=N\OCc2ccccc2)C(=O)NCCCNCCCCNCCCNC(=O)/C(Cc2cc(Br)c(OC)c(Br)c2)=N/OCc2ccccc2)cc1Br | 5.40 | 5.34 | 5.47 | 5.35 | 5.40 | 5.54 | 98.4 | 98.9 | 30 | 23.5 | 15.5 | 96.4 | 98.5 | 97.3 | 19.2 | 98.6 | 96.9 | 94.7 | 97.7 | 98.3 | inhibition of growth at 5 µM [21]: 68.2%; inhibition of growth at 2.5 µM [22]: 24.4%; inhibition of growth at 1.25 µM (HeLa [23]): 0%; inhibition of growth at 25 µM (MCF7 [24]): 97.6%; inhibition of growth at 5 µM (MCF7 [25]): 58.6%; inhibition of growth at 5 µM (HeLa [26]): 93.5%
COc1c(Br)cc(C/C(=N\OCc2ccccc2)C(=O)NCCNCCNC(=O)/C(Cc2cc(Br)c(OC)c(Br)c2)=N/OCc2ccccc2)cc1Br | < 4.00 | < 4.00 | < 4.00 | < 4.00 | < 4.00 | < 4.00 | – | – | – | – | – | – | – | – | – | – | – | – | – | – | –
CO/N=C(\Cc1cc(Br)c(OC)c(Br)c1)C(=O)NCCNCCNC(=O)/C(Cc1cc(Br)c(OC)c(Br)c1)=N/OC | 4.59 | 4.55 | 4.51 | 4.57 | 4.59 | 4.97 | 99 | 23 | 23.9 | 4.8 | 19.9 | 96.9 | 20.2 | 95.6 | 11.4 | 26.7 | 95 | 97.1 | 96.9 | 24.5 | inhibition of growth at 5 µM [21]: 22.1%; inhibition of growth at 2.5 µM [22]: 21.3%; inhibition of growth at 25 µM (HeLa [27]): 80.1%; inhibition of growth at 1.25 µM (HeLa [23]): 11%; inhibition of growth at 25 µM (MCF7 [24]): 46.2%; inhibition of growth at 5 µM (MCF7 [25]): 20.3%; inhibition of growth at 5 µM (HeLa [26]): 0.1%
COc1c(Br)cc(C/C(=N\O)C(=O)NCCCN(C)CCCCN(C)CCCNC(=O)/C(Cc2cc(Br)c(OC)c(Br)c2)=N/O)cc1Br | – | – | – | – | – | – | – | – | – | – | – | – | – | – | – | – | – | – | – | – | pIC50 (MCF7 [28]): 5.80; pIC50 [29]: 5.80
COc1c(Br)cc(C/C(=N\O)C(=O)NCCCCCNC(=O)/C(Cc2cc(Br)c(OC)c(Br)c2)=N/O)cc1Br | < 4.00 | < 4.00 | < 4.00 | < 4.00 | < 4.00 | < 4.00 | – | – | – | – | – | – | – | – | – | – | – | – | – | – | –
COc1c(Br)cc(C/C(=N\O)C(=O)NCCNCCNC(=O)/C(Cc2cc(Br)c(OC)c(Br)c2)=N/O)cc1Br | < 4.00 | < 4.00 | < 4.00 | < 4.00 | < 4.00 | < 4.00 | – | – | – | – | – | – | – | – | – | – | – | – | – | – | –
COc1c(Br)cc(C/C(=N\OCc2ccccc2)C(=O)NCCCCCNC(=O)/C(Cc2cc(Br)c(OC)c(Br)c2)=N/OCc2ccccc2)cc1Br | < 4.00 | < 4.00 | < 4.00 | < 4.00 | < 4.00 | < 4.00 | – | – | – | – | – | – | – | – | – | – | – | – | – | – | –
CO/N=C(\Cc1cc(Br)c(OC)c(Br)c1)C(=O)NCCCNCCCCNCCCNC(=O)/C(Cc1cc(Br)c(OC)c(Br)c1)=N/OC | 4.58 | 4.56 | 4.72 | 4.61 | 4.58 | 4.60 | 99.2 | 33.1 | 20.8 | 0 | 24.6 | 98.1 | 34.3 | 98.7 | 15.4 | 55 | 97.8 | 97.4 | 98.4 | 20.2 | inhibition of growth at 5 µM [21]: 26.1%; inhibition of growth at 2.5 µM [22]: 24.1%; inhibition of growth at 25 µM (HeLa [27]): 70.4%; inhibition of growth at 1.25 µM (HeLa [23]): 0%; inhibition of growth at 25 µM (MCF7 [24]): 55.5%; inhibition of growth at 5 µM (MCF7 [25]): 22.3%; inhibition of growth at 5 µM (HeLa [26]): 0%
COc1c(Br)cc(C/C(=N\O)C(=O)NCCCNCCCCNCCCNC(=O)/C(Cc2cc(Br)c(OC)c(Br)c2)=N/O)cc1Br | < 4.00 | < 4.00 | < 4.00 | < 4.00 | < 4.00 | < 4.00 | – | – | – | – | – | – | – | – | – | – | – | – | – | – | growth inhibition (GI) (HeLa [30]): tde; inhibition of growth at 5 µM (HeLa [31]): 90%
